The subject of data set [1] is MCF-7-derived mamospheres. Description: Formation of MCF-7-derived mamospheres (CSC tumorspheres). The data set is classed as cell-based. The following applies: Homo sapiens, MCF7; @10 µM; read-out: Inhibition of tumorsphere formation (%) MCF-7. The procedure:
(§1) (BD Biosciences, Franklin Lakes, NJ, USA). All cells were maintained at 37 °C in a humidified incubator in an atmosphere of 5% CO2, and passaged every 2–3 days.
(§2) Additionally, they were cultured using RPMI media (Gibco/Life Technologies; Grand […]
(§3) Colonospheres, mamospheres and colony formation unit assays. 30.000 cells per well of MCF-7 cells (mamos pheres), HCT-116 cells (colonospheres) and CD34+ cells from patients (colony formation units) were seeded in serum free non- adherent medium or […]
(§4) MethoCult (Stem Cell). […]

Data set [2] concerns HCT-116-derived colonospheres. The data set is described as follows: Formation of HCT-116-derived colonospheres (CSC tumorspheres). The data set is classed as cell-based. The following applies: Homo sapiens, HCT-116; @10 µM; read-out: Inhibition of tumorsphere formation (%) HCT-116. The procedure: as §1, §2, §3, §4
For data set [3], the system named is HCT-116. Description: Cytotoxic effect in colon tumor cell line (MTT). The following applies: Homo sapiens, HCT-116, read-out: Viability (%) HCT-116, @10 µM.
Procedure: (§5) The cytotoxic effect was determined in breast (MCF-7) and colon (HCT-116) tumor cell lines using MTT assays.
(§6) Cells were seeded at 3 × 10^4 cells/mL in 96-well plates. The test compound was diluted in PBS. […] Viability was evaluated by MTT or WST-1 and dose/response curves were performed.
Data set [4] has as its system MCF-7. The data set is described as follows: Cytotoxic effect in breast tumor cell line (MTT). The following applies: Homo sapiens, MCF7, read-out: Viability (%) MCF-7, @10 µM.
Procedure: as §5, §6
Data set [5] can be described thus: Plasma protein binding, equilibrium dialysis (RED). The data set is classed as in vitro ADME. The settings on record: mouse serum. The procedure: Based on the encouraging results obtained in ex vivo models of AML, we further assessed the therapeutic potential of the new NPM1 inhibitor in vivo. Prior to the evaluation of the compound in an animal model of AML, in vivo pharmacokinetic studies were addressed. Following a single intraperitoneal administration of UCM-13369 at a dose of 25 mg/kg, levels of 200–600 μg/L were detected in mouse peripheral blood up to 6 h (Figure 6A). Plasma protein binding of the compound in mouse serum was measured using an equilibrium dialysis assay, indicating a bound fraction of 83 ± 1%. Next, the efficacy of the compound was evaluated in immunodeficient mice after injection of OCI-AML3-ffLuc-GFP cells as an AML animal model. […]
coupled to a liquid nanochromatography Easy nLC 1200 System (Thermo Scientific).
Once digested, mutant NPM1 C+ C-end sample w as injected into a EASY-Spray™ C18 column, and digestion peptides were separated by using a lineal phase gradi ent (A: 0.1% formic acid in water; B: 20% acetonitrile, 0.1% formic acid in water) for 120 min. Spectra were acquired in DDA m ode, analyzing the 10 higher intensity parent ions in each cycl e.
Proteome Discoverer (Thermo Scientific) was used to align the spectra with the C-end […]
Random exclusion of AIRs was set to 2%. […] Clusters were classifi ed according to H ADDOCK score and stru ctures w er e analyzed with UCSF ChimeraX).10 […]
A general note: Equilibrium dialysis compares concentrations on both sides of a semipermeable membrane.

As to `COc1ccc([C@H]2Oc3ccccc3[C@@H](CN)[C@@H]2C(=O)NCC2CC2)cc1` [10a], the melting point (commonly the temperature of the solid-liquid transition) was 175 to 177 °C. The inhibition (usually the drop in the measured response relative to a control, in per cent) at 10 µM in data set [1] was determined as 4 ± 2%. Moreover, the inhibition at 10 µM in data set [2] came out at 2 ± 1%. Further, the viability (in general, a per cent measure of how many cells are alive, often set against a control) at 10 µM in data set [3] came out at 61 ± 8%. In data set [4], the viability at 10 µM was determined as 89 ± 6%.
Regarding `CC(C)NCC(O)COc1cccc2ccccc12` (stereo not drawn) [Propranolol, reference compound], in data set [5], the “Plasma protein binding, bound fraction” value was 86±2%.
